Laboratory results published in patent publication US8735445B2, “Inhibitors of 15-hydroxyprostaglandin dehydrogenase for stimulating pigmentation of the skin or skin appendages” (L'Oreal, priority 2003, dated 2014).
Read-outs that look alike come from different tables or passages of the source.

How the values were obtained:
[1] = test system: melanocyte line MeWo; test: Protection of PGF2α in melanocyte line MeWo; type: cell-based; conditions: 4 hours, MeWo melanocytes
Description: An ampoule of Mewo melanocytes (American type cell collection, HTB-65) is amplified (75 cm^2 flask, Costar), in DMEM medium (Gibco)+10% fetal calf serum+2 mM of L-glutamine+1% of antibiotics (Gibco). After confluence, these cells (48 hours to 72 hours) are resuspended in this same culture medium, after the action of trypsin (according to a procedure conventionally used in cell culture), in a proportion of 600 000 cells per ml.
200 μl of this suspension are introduced into n times 6 wells (n being the total number of assays, i.e., x molecules at 2 concentrations) of a 96-well plate (Costar). The plate is placed in an incubator at 37° C. under 5% CO2.
Preparation, in DMSO of the 1000× stock solutions of the active agents to be evaluated (i.e., 5 and 25 mM).
Removal of the supernatants from the cultures previously prepared (96-well plate), and rinsing with 100 μl/well of DMEM medium+additives (see above description) preheated to 37° C.
Introduction of 100 μl/well of DMEM medium (+additives) containing 0.1 μl of DMSO (control) or 0.1 μl of the stock solution of the active agent to be evaluated (there are 6 assay wells per molecule and per concentration).
Practically 1 ml of solution is prepared for each of the active agents (and per concentration) to be tested, therefore 1 ml of medium+1 μl of DMSO (control) or of 1000× stock solution.
The plate is again placed in an incubator at 37° C. under 5% CO2 for 4 hours, and then a PGF2α assay is carried out on 50 μl of each of the supernatants (of the various assays) by means of an immunoenzymatic kit (according to the supplier's recommendations (PGF2α, EIA kit, ref. 516011, Cayman)).
Results (as % of the amount of PGF2α measured under the control conditions): […]

[2] = target: T1, 15-PGDH (Homo sapiens, UniProt P15428); test: 15-PGDH test (spectrophotometric, NADH at 340 nm, PGE2 substrate); type: biochemical; conditions: Example I-5
T1 construct: GST (from vector pGEX-4T3); made in house; host or cells: E. coli BL21 DE3plys
T1 sequence (P15428 1-266): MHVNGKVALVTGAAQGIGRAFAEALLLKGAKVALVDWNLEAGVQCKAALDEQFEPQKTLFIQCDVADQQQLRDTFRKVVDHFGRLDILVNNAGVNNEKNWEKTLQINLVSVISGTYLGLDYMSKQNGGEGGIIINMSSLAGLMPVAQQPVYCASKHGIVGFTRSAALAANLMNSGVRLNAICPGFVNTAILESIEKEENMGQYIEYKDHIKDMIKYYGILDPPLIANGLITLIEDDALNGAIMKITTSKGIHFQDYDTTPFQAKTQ
Description: The enzyme obtained is at a concentration of 0.3 mg/ml and is blocked at −80° C. This suspension is thawed and stored in ice.
A 100 mM Tris buffer, pH—7.4, containing 0.1 mM of dithiothreitol (D5545, Sigma-Aldrich, L'isle D'Abeau Chesne, BP 701, 38297, Saint Quentin Fallavier), 1.5 mM of 13-NAD (N6522, Sigma-Aldrich, L'isle D'Abeau Chesne, BP 701, 38297, Saint Quentin Fallavier) and 50 μM of prostaglandin E2 (P4172, Sigma-Aldrich, L'isle D'Abeau Chesne, BP 701, 38297, Saint Quentin Fallavier) is prepared.
0.965 ml of this buffer (brought to 37° C. beforehand) is placed in the cuvette of a spectrophotomer (Perkin-Elmer, Lambda 2) thermostated at 37° C., the measuring wavelength of which is set at 340 nm. 0.035 ml of enzyme suspension at 37° C. is placed in the cuvette concomitantly with the recording (increase in optical density at 340 nm).
The maximum reaction rate is recorded.
The assay values (molecules) are compared with the control value (without molecule), and the results are expressed as % of the control value.
The assay is carried out as described in example 4a.
The methodology is that described in example 1-5.

[3] = target: T2, PGF synthase (PGFS) (Homo sapiens, UniProt P42330); test: Test on PGFS (PGF synthase; phenanthrenequinone/NADPH, 340 nm); type: biochemical
T2 sequence (P42330 1-323): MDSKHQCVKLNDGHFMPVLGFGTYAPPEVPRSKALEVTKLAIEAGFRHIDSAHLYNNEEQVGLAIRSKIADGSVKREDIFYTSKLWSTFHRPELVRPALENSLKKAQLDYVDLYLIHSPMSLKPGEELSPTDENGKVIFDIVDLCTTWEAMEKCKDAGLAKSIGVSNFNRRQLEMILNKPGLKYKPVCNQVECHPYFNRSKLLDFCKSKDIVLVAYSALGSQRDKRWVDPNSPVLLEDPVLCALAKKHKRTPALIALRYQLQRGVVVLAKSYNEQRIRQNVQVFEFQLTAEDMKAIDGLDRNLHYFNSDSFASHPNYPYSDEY
Description: The PGF synthase enzyme is obtained as described in FR-A-02/05067, at a concentration of 0.5 mg/ml, in suspension in an appropriate medium, and is blocked at −80° C. For the needs of the test, this suspension is thawed and stored in ice.
Moreover, a 100 mM Tris buffer, pH=6.5, containing 20 μM of 9.10-phenanthrenequinone* (P2896, Sigma-Aldrich, L′ isle D'Abeau Chesne, BP 701, 38297, Saint Quentin Fallavier) and 100 μM of β-NAPDH(N1630, Sigma-Aldrich, L'isle D'Abeau Chesne, BP 701, 38297, Saint Quentin Fallavier), is prepared in a brown bottle (exclusion of light).
*A stock solution having a titer of 1 mM is prepared in absolute ethanol, brought to 40° C.; the flask is placed in an ultrasound tank so as to facilitate solubilization of the product.
0.950 ml of this buffer (brought beforehand to 37° C.) is introduced into the cuvette of a spectrophotometer (Perkin-Elmer, Lambda 2) thermostatically controlled at 37° C., the measuring wavelength of which is set at 340 nm. 0.05 ml of enzymatic suspension at 37° C. is introduced into the cuvette concomitantly with the recording (corresponding to a decrease in optical density at 340 nm). The maximum reaction rate is recorded. […]

| Compound | % of the amount of PGF2α measured under the control conditions ([1]; 5 μM) | % of the amount of PGF2α measured under the control conditions ([1]; 25 μM) | further results |
| --- | --- | --- | --- |
| O=C1NC(=O)/C(=C/c2ccc(-c3ccc(C(=O)O)cc3)o2)S1 [Compound 1a of example I] | +67% | +51% |  |
| O=C1NC(=O)C(=Cc2ccc(-c3ccc(C(=O)O)cc3)o2)S1 [Compound 1 of example I, 4-{5-[(2,4-dioxo-1,3-thiazolidin-5-ylidene)methyl]-2-furyl}benzoic acid] |  |  | IC50fs/IC50dh ratio ([2]; selectivity for 15-PGDH with respect to PGFS): greater than 13 |
| O=C1NC(=O)/C(=C/c2ccc(-c3ccc(C(=O)O)cc3)o2)S1 [Compound 1, 4-{5-[(2,4-dioxo-1,3-thiazolidin-5-ylidene)methyl]-2-furyl}benzoic acid] |  |  | IC50 ([2]; read-out: Inhibition 15-PGDH IC50dh): 0.3 µM; IC50 ([3]; Example I-5, read-out: Inhibition of PGFS IC50fs): 4 µM |
| COc1ccccc1/C=C(\C#N)c1nn(-c2ccccc2)c(N)c1C#N [Compound 9 of example II] |  |  | IC50 ([3]; Example II-2, read-out: Inhibition of PGF synthase IC50fs): > 50 µM |
| COC(=O)c1cc(/N=N/c2ccc(O)c(CC(=O)O)c2)cc(C(=O)OC)c1 [PhCL28A, reference compound] | +43% | +147% |  |
